Data as given in PubChem BioAssay (NCI).
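Briefly, cells in 96-well plates were exposed to five compound concentrations for 48 h, and endpoints were estimated by linear interpolation. The concentration for 50% growth inhibition is given as GI50. TGI marks complete inhibition of growth.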

Experiments:
Assay in all cases: growth of human tumour cells (NCI), 48 h
CAKI-1 renal = test system: CAKI-1 renal
COLO 205 colon = test system: COLO 205 colon
HOP-62 NSCLC = test system: HOP-62 NSCLC
HOP-92 NSCLC = test system: HOP-92 NSCLC
IGROV1 ovarian = test system: IGROV1 ovarian
MALME-3M melanoma = test system: MALME-3M melanoma
OVCAR-5 ovarian = test system: OVCAR-5 ovarian
SN12C renal = test system: SN12C renal
TK-10 renal = test system: TK-10 renal
UACC-257 melanoma = test system: UACC-257 melanoma

Structure (SMILES)	GI50 (CAKI-1 renal) [µM]	TGI (CAKI-1 renal) [µM]	GI50 (COLO 205 colon) [µM]	TGI (COLO 205 colon) [µM]	GI50 (HOP-62 NSCLC) [µM]	TGI (HOP-62 NSCLC) [µM]	GI50 (HOP-92 NSCLC) [µM]	TGI (HOP-92 NSCLC) [µM]	GI50 (IGROV1 ovarian) [µM]	TGI (IGROV1 ovarian) [µM]	GI50 (MALME-3M melanoma) [µM]	TGI (MALME-3M melanoma) [µM]	GI50 (OVCAR-5 ovarian) [µM]	TGI (OVCAR-5 ovarian) [µM]	GI50 (SN12C renal) [µM]	TGI (SN12C renal) [µM]	GI50 (TK-10 renal) [µM]	TGI (TK-10 renal) [µM]	GI50 (UACC-257 melanoma) [µM]	TGI (UACC-257 melanoma) [µM]
Cc1cc2c(C(=O)NC[C@H](C)c3ccccc3)c(O)c(O)cc2c(O)c1-c1c(C)cc2c(C(=O)NC[C@H](C)c3ccccc3)c(O)c(O)cc2c1O	0.375	10	0.711	5.83	0.301	2.15	0.276	1	0.0909	11.3	1.78	7.23	0.503	5.03	0.436	10.6	0.298	10.6	1.37	7.23
O=c1c2c(nc3n1CCS3)[nH]c1cc([N+](=O)[O-])ccc12	> 100	> 100	41.4	> 100	> 100	> 100	67.9	> 100	36.2	> 100	> 100	> 100	> 100	> 100	> 100	> 100	> 100	> 100	> 100	> 100
OCC1C(OCc2ccccc2)C(OCc2ccccc2)C(OCc2ccccc2)CN1Cc1ccccc1 (stereo not given)		> 100		28.4		> 100		44.8		> 100		91.5		> 100		39.6		> 100		81
CCc1ccc(Oc2c(-c3ccc(OCc4ccc(Cl)cc4)cc3O)n[nH]c2C(F)(F)F)cc1	2.29	5.95	1.71	3.27	1.87	3.48	2.03	4.77	2.33	6.87	1.78	3.47	1.89	3.95	1.72	3.35	2	4.75	1.84	3.8
Fc1ccc(-c2c(-c3ccncc3)nc3n2CCS3)cc1	> 25	> 25	> 25	> 25	> 25	> 25	> 16.9	> 25	> 25	> 25	> 25	> 25	> 25	> 25	> 25	> 25	> 25	> 25	> 25	> 25
C/C=C(\C)c1cc(=O)c2c(C)cc3c(c2o1)C(=O)c1c(O)c(C2CC(C)(N(C)C)C(OC(C)=O)C(C)O2)cc(C2CC(N(C)C)C(O)C(C)O2)c1C3=O (stereo not given)		5.1		3.05		6.45		30.9		6.01		1.13		15.5		8.81		> 30		6.47
CC(C)C[C@H](NC(=O)CNC(=O)c1cc(Cl)ccc1Cl)B(O)O	< 0.0165	0.0676	0.0432	> 38.5	0.0472	0.429	0.0231	0.165	0.0498	0.283	< 0.0115	0.035	0.0493	0.551	0.0442	0.39	< 0.0138	0.0517	0.0153	0.0492
COc1ccccc1Nc1cc(O)c2c(=O)cc(-c3ccccc3)oc2c1	4.24	20.3	9.92	> 100	3.55	> 100	3.76	23.7	2.98	18.5	2.13	11.9	4.82	27.3	3.5	17.6	10.4	28.6	6.72	63.5
CCc1nc(N)nc(N)c1-c1ccc(Cl)c([N+](=O)[O-])c1		> 100		55.5		> 95.5		> 87.1		> 100		> 100		> 100		> 100		> 100		> 100
CCOC(OC(C)=O)[C@@H]1C=C[C@H](C)N(c2ccc([N+](=O)[O-])cc2)O1 (stereo not given in full)		24.3		27.7		31.6		16.2		29		20.1		10.4		22.3		14		26.9
CCOC(=O)Cc1c(C)c2cc(C(=O)c3ccccc3)c(O)cc2oc1=O		> 100		37.2		> 100		58.8		> 100		62.1		> 100		> 100		> 100		80.1
O=c1oc2ccc(I)cc2c(=O)n1-c1ccc(Br)cc1F	0.375	3.23	3.19	11.6	1.83	6.65	0.207	0.634	0.745	13.3	0.462	2.55	3.55	> 100	0.546	5.7	3.81	10.2	0.735	5.02
O=c1c2ccccc2sc2c(NCCCNCCO)nc3ccccc3c12	1.6	3.2	1.47	3.23	1.34	2.82	0.922	5.67	1.35	3.17	1.58	3.3	1.56	3.31	1.47	3.24	1.91	3.38	1.93	3.6
O=C(/C=C\c1ccccc1O)c1ccc(O)cc1O		> 100		72.9		> 100		> 100		> 100		> 100		> 100		> 100		> 100		> 100
Cc1ccc(C)c(N2C(=O)C(=O)C(c3nc4ccccc4s3)/C(=N/N)C2=O)c1 (stereo not given)		> 100		> 100		> 100		> 100		> 100		> 100		> 100		> 100		> 100		> 74.5
